Measurements published in the NIST ThermoML archive (doi:10.1021/je800348s).

Experiment: xn = mol fraction of the nth substance listed
Details: 101 kPa, Liquid; for mass density: Vibrating tube method

C1C[C@@H]2[C@H]3CC[C@H](C3)[C@@H]2C1 [exo-tetrahydrodicyclopentadiene] + CCCCCCCC
Details | mass density, 293.15 K [kg/m3] | mass density, 298.15 K [kg/m3] | mass density, 303.15 K [kg/m3] | mass density, 313.15 K [kg/m3] | viscosity, 293.15 K [mPa·s] | viscosity, 298.15 K [mPa·s] | viscosity, 303.15 K [mPa·s] | viscosity, 313.15 K [mPa·s]
x2 = 0 | 935.2 | 931.4 | 927.7 | 922.2 | 3.064 | 2.74 | 2.514 | 2.27
x2 = 0.117 | 906.1 | 901 | 898.5 | 893.5 | 2.353 | 2.109 | 1.945 | 1.769
x2 = 0.2275 | 879.1 | 874.5 | 871.8 | 866.6 | 1.836 | 1.665 | 1.553 | 1.421
x2 = 0.3384 | 852.4 | 848.1 | 845.4 | 839.8 | 1.47 | 1.351 | 1.272 | 1.166
x2 = 0.4431 | 827.7 | 823.6 | 820.7 | 814.9 | 1.216 | 1.12 | 1.056 | 0.9677
x2 = 0.5439 | 804.2 | 800.3 | 797.2 | 791 | 1.027 | 0.9508 | 0.8917 | 0.8212
x2 = 0.6417 | 781.8 | 778 | 774.8 | 768.3 | 0.8793 | 0.8194 | 0.7691 | 0.7085
x2 = 0.7361 | 760.4 | 756.6 | 753.2 | 746.4 | 0.7663 | 0.7198 | 0.6752 | 0.6197
x2 = 0.8265 | 740.3 | 736.5 | 732.9 | 725.6 | 0.6722 | 0.6345 | 0.5929 | 0.5424
x2 = 0.9143 | 721.1 | 717.1 | 713.3 | 705.6 | 0.5988 | 0.5681 | 0.5302 | 0.4839

C1C[C@@H]2[C@H]3CC[C@H](C3)[C@@H]2C1 [exo-tetrahydrodicyclopentadiene] + CCCCCCCCCC
Details | mass density, 293.15 K [kg/m3] | mass density, 298.15 K [kg/m3] | mass density, 303.15 K [kg/m3] | mass density, 313.15 K [kg/m3] | viscosity, 293.15 K [mPa·s] | viscosity, 298.15 K [mPa·s] | viscosity, 303.15 K [mPa·s] | viscosity, 313.15 K [mPa·s]
x2 = 0 | 935.2 | 931.4 | 927.7 | 922.2 | 3.064 | 2.74 | 2.514 | 2.27
x2 = 0.095 | 912.7 | 907.5 | 905.4 | 900.2 | 2.631 | 2.339 | 2.191 | 2.006
x2 = 0.1934 | 890 | 885.1 | 882.8 | 877.8 | 2.26 | 1.996 | 1.889 | 1.741
x2 = 0.2908 | 868.3 | 863.7 | 861.2 | 856.3 | 1.964 | 1.728 | 1.638 | 1.53
x2 = 0.3902 | 846.8 | 842.5 | 839.8 | 834.8 | 1.717 | 1.521 | 1.441 | 1.334
x2 = 0.4893 | 826 | 822 | 819 | 814 | 1.525 | 1.362 | 1.287 | 1.214
x2 = 0.6147 | 800.7 | 796.9 | 793.7 | 788.4 | 1.348 | 1.194 | 1.143 | 1.101
x2 = 0.6905 | 786 | 782.3 | 779 | 773.3 | 1.245 | 1.102 | 1.058 | 1.032
x2 = 0.7895 | 767.4 | 763.7 | 760.3 | 754.2 | 1.13 | 1.009 | 0.9726 | 0.9345
x2 = 0.8952 | 748.2 | 744.6 | 740.9 | 734.3 | 1.032 | 0.9181 | 0.8852 | 0.8537
